Earlier results as cited in US8999405B1 (priority 2013, dated 2015).

Legend:
[1] = alkaline nitrogenous base of nicotine

Row | Structure (SMILES) | Solubility Alcohol (alcohol) | Solubility Other (other solvent, named in the cell) | Solubility Water (water) | pKa [1]
1 | CN1CCC[C@H]1c1cccnc1.O=C(O)c1ccccc1C(=O)O [Phthalic] | soluble | insoluble: ether | soluble | 
2 | CN1CCC[C@H]1c1cccnc1 [nicotine I, 3-(1-methyl-2-pyrrolidinyl) pyridine] |  |  |  | ~8.5
